These results are taken from patent US10844049B2, “GLP-1R agonists and uses thereof” (QILU REGOR THERAPEUTICS INC., priority 2018, dated 2020).

In general, EC50 refers to the concentration that produces a half-maximal response. As a reminder, the Tmax is the time from dosing to the highest level. What is called bioavailability is the share of a dose that reaches the circulation, judged against a reference dose that is usually intravenous.

The target in data set [1] is T1, GLP1R (Homo sapiens, UniProt P43220). As to the kind of experiment: β-Arrestin-mediated GLP1R internalization assay (PathHunter engineered U2OS cells). It counts as cell-based. Set-up: host or cells: PathHunter engineered U2OS cells. Conditions: averaged Bmax, percentage of control GLP-1 (7-37), highest concentration tested. An excerpt: A similar assay can also be used to assess the extent of signal attenuation due to GLP-1R internalization (the β-Arrestin Internalization Assay). In this assay, activated GLP1R Internalization cells were engineered to co-express an untagged GLP1R, Enzyme Acceptor (EA) tagged β-Arrestin, and a ProLink™ (PK) tag localized to the endosomes. Activation of the GLP1R induces β-Arrestin recruitment, which leads to internalization of the Receptor/Arrestin-EA complex in PK-tagged endosomes. This forces complementation of the two β-galactosidase enzyme fragments (EA and PK) to form a functional enzyme that hydrolyzes substrate to generate a chemiluminescent signal. These cells have been modified to prevent long term propagation and expansion using a proprietary compound that has no apparent effect on assay performance.
T1 sequence (P43220 24-463): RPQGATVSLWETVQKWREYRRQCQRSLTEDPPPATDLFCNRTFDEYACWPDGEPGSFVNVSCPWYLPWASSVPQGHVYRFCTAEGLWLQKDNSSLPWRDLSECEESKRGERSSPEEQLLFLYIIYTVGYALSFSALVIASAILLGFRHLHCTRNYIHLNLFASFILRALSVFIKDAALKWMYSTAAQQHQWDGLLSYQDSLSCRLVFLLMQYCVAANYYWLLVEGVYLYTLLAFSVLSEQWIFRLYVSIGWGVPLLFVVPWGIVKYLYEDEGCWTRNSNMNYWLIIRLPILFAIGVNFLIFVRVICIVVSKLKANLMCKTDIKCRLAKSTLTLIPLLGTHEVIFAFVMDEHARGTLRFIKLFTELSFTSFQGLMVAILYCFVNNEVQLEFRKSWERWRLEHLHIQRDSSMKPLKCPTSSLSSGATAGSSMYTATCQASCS
Specifically, PathHunter engineered U2OS cells from the assay kit (Cat #93-0724E3CP0L) were plated at a density of 2000 cells/20 μL/well in a 384-well white/clear bottom plates (Greiner Cat #781098). Frozen cells were quickly thawed and 10 mL of cell plating medium (provided by the kit) was added to thawed cells. Cells were stored in a 37° C. incubator and kept for approximately 48 hours until ready for the assay.
Reference and test compounds were dissolved in 100% DMSO. 5× concentration of an agonist was prepared in serum free DMEM (Thermo Cat #11965). 5 μL of this solution was added to 20 μL cell medium in assay plate for a final top concentration of 10 μM. Plates were incubated at 37° C. for 180 min.
Following 180 min incubation, detection reagents were made up by combining 1 part Galacton Star Substrate with 5 parts Emerald II™ Solution, and 19 parts of PathHunter Cell Assay Buffer, respectively. 12.5 μL detection reagent was added to each well. The plates were then incubated at room temperature for 60 min. Plates were then read on Envision for 0.1 sec/well.
EC50 determinations were made from agonist dose-response curves analyzed with a curve fitting program using a 4-parameter logistic dose response equation.

Data set [2] addresses T1, GLP1R. The data set can be described thus: GLP1R cAMP HTRF assay, HEK293/GLP-1R/CRE/Luc (HEK293T cells). It counts as cell-based. The gist of the method:
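cAMP accumulation via HTRF after 30 min, 37 °C exposure of 1000 receptor-expressing cells/well to compound (0.5% DMSO final) in IBMX (500 μM)/0.1% BSA DPBS.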

Data set [3] in a line: Monkey oral pharmacokinetic (PK) study, non-naïve Cynomolgus male monkeys. It counts as in vivo. Conditions: Dose 2. Here is the method:
Appropriate volumes of vehicles (e.g., 2% Tween 80 (v:v) and 0.5% MC (w:v) in saline or 0.5% MC (w:v) in water were then added into the mortar containing the ground compounds, and the mixture was then grinded with a pestle until a homogeneous paste was formed. Additional appropriate volumes of vehicles were added into the mortar containing each compound, and the mixture was grinded further with the pestle until a homogeneous suspension was obtained.
The rest of the vehicle was added to make up the final dosing volume of about 1 mg/mL or 2 mg/mL (i.e., final dosing volume of about 5 mL/kg), and the homogenous suspension was continuously stirred prior to and during the dosing.
Non-naïve Cynomolgus male monkeys (n=3/test article; sourced from Hainan Jingang Biotech Co., Ltd., Nayang Xmtan, Fucheng Town, Qiongshan District, Haikou City, Hainan Province, China); or non-naïve aged, obese, and diabetic male Macaca fascicularis monkeys (n=3/test article, Source: Kunming Biomed International Colony) were used in pre-clinical in vivo studies. All non-naïve Cynomolgus male monkeys were approximately 3 to 5 years old, weighed about 2.5-5 kg, and were within ±20% of the average body weight. All non-naïve aged, obese, and diabetic male Macaca fascicularis monkeys were approximately 12 to 20 years old, weighed about >8-12 kg.
All animals were fasted overnight before dosing, and the food were supplied approximately 4 hours post dose (with free access to water all the time).
Animals were restrained at designated time points for blood sampling. Approximately 500 μL of blood samples was taken via cephalic or saphenous vein into EDTA-K2 tubes. Blood samples were put on wet ice before centrifugation.
For oral administration (PO) of either Dose 1 or Dose 2: blood samples were collected at pre-dose, and at 15 min, 30 min, 1 hr, 2 hr, 4 hr, (6 hr for compounds 19 and 28 with cynomolgus monkeys only), 8 hr, 12 hr, and 24 hr post dose (i.e., 9 or 10 total time points for each compound at each dose).
The blood samples were centrifuged at approximately 2,000-4,000 rpm for about 10-15 minutes at 2-8′C, and each resulting plasma portion was then transferred into an individual tube.
LC-MS/MS methods were developed, and bioanalysis for the test articles in monkey plasma was performed according to the developed LC-MS/MS methods.
Undiluted plasma samples: An aliquot of 20-50 μL plasma sample was mixed with 200 μL of ACN or MeOH containing one of the internal standards (IS, e.g., Diclofenac or Terfenadine). The mixture was then vortexed for about 1-5 min, and centrifuged at about 4,000-5,800 rpm for about 10-15 min. An aliquot of 1 μL supernatant was used for LC-MS/MS analysis.
Pharmacokinetics parameters, including area under the curve (AUC0-t), maximum plasma concentration (Cmax), time to reach maximum plasma concentration (Tmax), oral bioavailability (F %), etc., were calculated using Phoenix software (Version 6.4) and non-compartment model.

Data set [4] addresses T1, GLP1R. The data set can be described thus: GLP1R cAMP assay, CHO cells stably expressing human GLP-1R. It counts as cell-based. Conditions: CHO cells, mean ± spread, read-out: CHO cells EC50. How it is done: GLP-1R-mediated agonist activity was determined with a cell-based functional assay utilizing an HTRF (Homogeneous Time-Resolved Fluorescence) cAMP detection kit (cAMP Dynamic 2 Assay Kit; CisBio cat #62AM4PEC) that measures cAMP levels in the cell. The method is a competitive immunoassay between native cAMP produced by the cells and exogenous cAMP labeled with the dye d2. The tracer binding is visualized by a mAb anti-cAMP labeled with Cryptate. The specific signal (i.e., energy transfer) is inversely proportional to the concentration of cAMP in either standard or experimental sample.
Varying concentrations of each compound to be tested (in DMSO) were diluted in DMSO to obtain 200× compound working solution first and then 50 nl compounds were added to a white 384-well assay plate (Greiner 784075) with ECHO. The final DMSO concentration was 0.5%. The compound concentration range may be adjusted at any time.
Cells were removed from cryopreservation, re-suspended in 5 mL of Dulbecco's Phosphate Buffered Saline (DPBS-Sigma Cat # D8537) and centrifuged at 900 g for 5 min at 22° C. The cell pellet was then re-suspended in 1 mL of assay buffer [DPBS with 500 μM IBMX (Sigma #15879) and 0.1% BSA (Sigma # A1933). IBMX and BSA were freshly added on the day of assay]. A 10 μL sample of the cell suspension was counted on an Invitrogen Countess II to determine cell viability and cell count per mL. The remaining cell suspension was then adjusted with assay buffer to deliver 1000 viable cells per well using a Matrix Combi Multidrop reagent dispenser. 10 μL cell suspensions were added to each well of the assay plate which already contains compound. The plate was sealed and incubated at 37° C. with 5% CO2 for 30 minutes.
Following the 30 minute incubation, 5 μL of labeled d2 cAMP and 5 μL of anti-cAMP antibody (both diluted 1:20 in cell lysis buffer; as described in the manufacturer's assay protocol) were added to each well of the assay plate. The plates w ere then incubated at room temperature and after 60 minutes, changes in the HTRF signal were read with an Envision multi-label plate reader using excitation of 330 nm and emissions of 615 and 665 nm. Raw data were converted to nM cAMP by interpolation from a cAMP standard curve (as described in the manufacturer's assay protocol) and the percent effect was determined relative to a saturating concentration of the full agonist GLP-17-37 (10 nM) included on each plate. EC50 determinations were made from agonist dose-response curves analyzed with a curve fitting program using a 4-parameter logistic dose response equation. […]
In general terms: cAMP levels reflect the balance of adenylyl cyclase and phosphodiesterase activity.

[5] abbreviates: male, cynomolgus monkey, plasma, oral.
Where [6] appears, read: mean ± spread, read-out: HEK293T cells EC50.

The structures appear in SMILES notation.

As for `O=C(O)c1ccc2nc(CN3CCN(c4ccnc(OCc5ccc(Cl)cc5F)n4)CC3)n(C[C@@H]3CCO3)c2c1` [Compound 9, (S)-2-((4-(2-((4-chloro-2-fluorobenzyl)oxy)pyrimidin-4-yl)piperazin-1-yl)methyl)-1-(oxetan-2-ylmethyl)-1H-benzo[d]imidazole-6-carboxylic acid], the “Bmax (POC)” value in data set [1] stood at 27.03 POC. Also, the EC50 in data set [2] (read-out: EC50) is at most 15 nM.
For `O=C(O)c1ccc2nc(CN3CC=C(c4cccc(OCc5ccc(C(F)(F)F)nc5)n4)CC3)n(C[C@@H]3CCO3)c2c1` [Compound 45, (S)-1-(oxetan-2-ylmethyl)-2-((4-(6-((6-(trifluoromethyl)pyridin-3-yl)methoxy)pyridin-2-yl)-5,6-dihydropyridin-1(2H)-yl)methyl)-1 h-benzo[d]imidazole-6-carboxylic acid], the “Bmax (POC)” value in data set [1] was determined as 19.1 POC. Besides, the EC50 in data set [2] (read-out: EC50) is at most 15 nM.
In the case of `O=C(O)c1ccc2nc(CN3CC=C(c4cccc(OCc5ccc(C(F)(F)F)cc5)n4)CC3)n(C[C@@H]3CCO3)c2c1` [Compound 46], in data set [1], the “Bmax (POC)” value came out at 27.4 POC. Moreover, the EC50 in data set [2] (read-out: EC50) is at most 15 nM.
For `CS(=O)(=O)NC(=O)c1ccc2nc(CN3CC=C(c4cccc(OCc5ccc(Cl)cc5F)n4)CC3)n(C[C@@H]3CCO3)c2c1` [Compound 47, (S)-2-((4-(6-(4-chloro-2-fluorobenzyloxy)pyridin-2-yl)-5,6-dihydropyridin-1(2H)-yl)methyl)-N-(methylsulfonyl)-1-(oxetan-2-ylmethyl)-1 h-benzo[d]imidazole-6-carboxamide] the same measures were 22.8 POC and at most 15 nM.
The like results for `Fc1cc(Cl)ccc1COc1cccc(C2=CCN(Cc3nc4ccc(-c5nnn[nH]5)cc4n3C[C@@H]3CCO3)CC2)n1` [Compound 105, (S)-2-((4-(6-(4-chloro-2-fluorobenzyloxy)pyridin-2-yl)-5,6-dihydropyridin-1(2H)-yl)methyl)-1-(oxetan-2-ylmethyl)-6-(1H-tetrazol-5-yl)-1H-benzo[d]imidazole] were, in that order, 24.2 POC and at most 15 nM.
Turning to `N#Cc1ccc(COc2cccc(C3CCN(Cc4nc5ccc(C(=O)O)cc5n4C[C@@H]4CCO4)CC3)n2)c(F)c1` [Compound 418, reference compound], in data set [3] (setting [5]), the Tmax was determined as 1.7 h and the bioavailability was determined as 8.17%. In data set [3] (oral), this compound gave an AUC0-24 h of 774 Arbitrary units and a Cmax of 232 Arbitrary unit. Also, the “drop in plasma concentration” value in data set [3] (over about 24 hours post oral dosing) is listed as “about 10 fold”.
Take `N#Cc1ccc(COc2cccc(C3=CCN(Cc4nc5ccc(C(=O)O)nc5n4C[C@@H]4CCO4)CC3)n2)c(F)c1` [drawing 69]: the 50% effective concentration (EC50) in data set [4] was determined as 3.86 nM; in data set [2] (setting [6]) it was 0.168 nM.
The like results for `N#Cc1ccc(COc2nc(C3CCN(Cc4nc5ccc(C(=O)O)cc5n4C[C@@H]4CCO4)CC3)ccc2F)c(F)c1` [reference compound] were, in that order, 463 nM and 5.65 nM.
The like results for `O=C(O)c1ccc2nc(CN3CCC(c4cccc(OCc5ccc(Cl)cc5F)n4)CC3)n(C[C@@H]3CCO3)c2c1` [reference compound] were, in that order, 7.65 nM and 0.412 nM.
As to `N#Cc1ccc(COc2cccc(C3CCN(Cc4nc5ccc(C(=O)O)nc5n4C[C@@H]4CCO4)CC3)n2)c(F)c1` [reference compound], the values for the EC50 in data set [4] and in data set [2] (setting [6]) were 3.5 nM and 0.3 nM, respectively.
